Measurements as given in article PMC10657973 (Journal of Pharmaceutical Analysis, 2023).
Entries after “also recorded” stand apart in the source; their conditions may differ.

What was measured:
OAT1 [1] = biological target: T1, OAT1 (Homo sapiens, UniProt Q4U2R8); assay: Uptake of UTs in HEK293T-OAT1 cells; format: cell-based; details: 100 μM, 30 min; for uptake of HSA-bound UT in OAT1-overexpressing cells vs control cells / uptake of free UT in OAT1-overexpressing cells vs control cells: 37 °C; for uptake of HSA-bound UT in OAT1-overexpressing cells vs control cells: with HSA; for uptake of free UT in OAT1-overexpressing cells vs control cells: without HSA
T1 sequence (Q4U2R8 1-563): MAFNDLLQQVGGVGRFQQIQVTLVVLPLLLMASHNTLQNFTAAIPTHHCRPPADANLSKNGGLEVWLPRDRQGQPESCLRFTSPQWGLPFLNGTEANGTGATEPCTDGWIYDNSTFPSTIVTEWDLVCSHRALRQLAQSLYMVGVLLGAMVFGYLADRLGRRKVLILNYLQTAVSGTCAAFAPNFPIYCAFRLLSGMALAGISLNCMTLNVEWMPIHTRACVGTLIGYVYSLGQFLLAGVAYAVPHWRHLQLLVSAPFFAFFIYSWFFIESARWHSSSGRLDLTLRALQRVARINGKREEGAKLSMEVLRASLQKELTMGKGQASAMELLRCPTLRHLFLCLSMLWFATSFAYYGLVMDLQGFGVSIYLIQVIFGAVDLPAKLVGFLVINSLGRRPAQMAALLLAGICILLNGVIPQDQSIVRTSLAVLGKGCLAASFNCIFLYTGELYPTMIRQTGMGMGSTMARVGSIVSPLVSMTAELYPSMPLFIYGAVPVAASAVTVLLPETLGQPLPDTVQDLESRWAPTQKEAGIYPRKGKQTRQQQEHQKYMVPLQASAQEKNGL

OAT3 [2] = biological target: T2, OAT3 (Homo sapiens, UniProt Q8TCC7); assay: Uptake of UTs in HEK293T-OAT3 cells; format: cell-based; details: 100 μM, 30 min; for uptake of HSA-bound UT in OAT3-overexpressing cells vs control cells / uptake of free UT in OAT3-overexpressing cells vs control cells: 37 °C; for uptake of HSA-bound UT in OAT3-overexpressing cells vs control cells: with HSA; for uptake of free UT in OAT3-overexpressing cells vs control cells: without HSA
T2 sequence (Q8TCC7 1-542): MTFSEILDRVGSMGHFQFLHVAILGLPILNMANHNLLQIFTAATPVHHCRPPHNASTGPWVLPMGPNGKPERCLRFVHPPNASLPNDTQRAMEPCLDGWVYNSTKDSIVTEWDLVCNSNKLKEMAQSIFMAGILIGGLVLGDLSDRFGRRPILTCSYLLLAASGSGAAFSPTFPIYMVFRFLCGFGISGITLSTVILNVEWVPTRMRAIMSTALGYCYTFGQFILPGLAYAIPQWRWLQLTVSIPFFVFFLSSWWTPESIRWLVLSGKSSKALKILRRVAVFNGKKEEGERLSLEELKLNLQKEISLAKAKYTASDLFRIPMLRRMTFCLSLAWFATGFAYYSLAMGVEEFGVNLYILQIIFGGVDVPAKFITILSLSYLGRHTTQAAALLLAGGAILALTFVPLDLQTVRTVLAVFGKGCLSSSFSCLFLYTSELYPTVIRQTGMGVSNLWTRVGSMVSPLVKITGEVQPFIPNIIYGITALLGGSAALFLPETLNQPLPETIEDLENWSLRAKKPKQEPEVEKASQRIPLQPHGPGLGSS

MRP4 = assay: Intracellular accumulation of UTs in MRP4-overexpressing cells; format: cell-based, human; details: 100 μM, 30 min
OAT1 [3] = biological target: T1, OAT1; assay: Transport kinetics of UTs in HEK293T-OAT1 cells; format: cell-based
P-gp = assay: Specificity: uptake in P-gp-overexpressing cells; format: cell-based; details: uptake in overexpressing cells vs control, 4 mM ATP
OAT4 = assay: Specificity: uptake in OAT4-overexpressing cells; format: cell-based
MRP2 = assay: Accumulation of kynurenic acid in MRP2-overexpressing cells; format: cell-based; details: Fig. S15
rMRP4 [4] = format: in vivo, rats
rOAT1/3 = assay: rOAT1/3−/− rat experiment; format: in vivo, rats
rMRP4 [5] = format: in vivo, rats; remark: listed apart in the source
[6] = format: in vivo, rats
[7] = Correlation between biomarkers and cefmetazole pharmacokinetics in rats; format: in vivo
[8] = test system: OAT1/3 and MRP4 double-transfected MDCK cells; details: 37 °C
rOATs = rOATs inhibition experiment
OAT3 [9] = biological target: T2, OAT3; assay: Transport kinetics of UTs in HEK293T-OAT3 cells; format: cell-based; details: read-out: Km of OAT3-mediated uptake; HEK293T-OAT3, Michaelis-Menten
OCT2 = assay: Specificity: uptake in OCT2-overexpressing cells; format: cell-based; details: uptake in overexpressing cells vs control
MATE1 = assay: Specificity: uptake in MATE1-overexpressing cells; format: cell-based; details: uptake in overexpressing cells vs control, pH 8.0
MATE2-K = assay: Specificity: uptake in MATE2-K-overexpressing cells; format: cell-based; details: uptake in overexpressing cells vs control, pH 8.0
OAT2 = assay: Specificity: uptake in OAT2-overexpressing cells; format: cell-based; details: uptake in overexpressing cells vs control
OATP4C1 = assay: Specificity: uptake in OATP4C1-overexpressing cells; format: cell-based; details: uptake in overexpressing cells vs control
PEPT2 = assay: Specificity: uptake in PEPT2-overexpressing cells; format: cell-based; details: uptake in overexpressing cells vs control
URAT1 = assay: Specificity: uptake in URAT1-overexpressing cells; format: cell-based; details: uptake in overexpressing cells vs control

## O=C(O)c1cc(=O)c2ccccc2[nH]1 [Kynurenic acid, kynurenic acid]
OAT1 [1]
  uptake at 4 °C in OAT1-overexpressing cells vs control: no significant difference
  uptake of HSA-bound UT in OAT1-overexpressing cells vs control cells: dramatically increased
  uptake of free UT in OAT1-overexpressing cells vs control cells: dramatically increased; also recorded: significantly higher
OAT3 [2]
  uptake at 4 °C in OAT3-overexpressing cells vs control: no significant difference
  uptake of HSA-bound UT in OAT3-overexpressing cells vs control cells: dramatically increased
  uptake of free UT in OAT3-overexpressing cells vs control cells: dramatically increased; also recorded: significantly higher
MRP4
  uptake at 4 °C in MRP4-overexpressing cells vs control: no significant difference
OAT1 [3]; HEK293T-OAT1/3 cells, 100 μM
  linear uptake time: 0 to 10 min
P-gp
  transport mediated by P-gp: not mediated
OAT4
  transport mediated by OAT4 / uptake in OAT4-overexpressing cells vs control: not mediated
MRP2
  substrate of MRP2: potential substrate of MRP2
rMRP4 [4]; MK-571 5, 10, 20 mg/kg oral, 7 days
  levels in renal tissues in rats treated with MK-571 vs control: significantly increased
rOAT1/3; rat, in vivo
  renal clearance rate in rOAT1/3−/− rats vs WT: significantly decreased
  serum levels in rOAT1/3−/− rats vs WT: significantly increased
rMRP4 [5]; Fig. S9
  efflux from hepatocytes into the blood after rMRP4−/−: hindered
rMRP4 [5]; rat, in vivo
  renal clearance rate in rMRP4−/− rats vs WT: did not change significantly
  renal tissue concentration in rMRP4−/− rats vs WT: unaffected
  serum levels in rMRP4−/− rats vs WT: did not change significantly
[6]; rat, urine, iv, 2 mg/kg
  half-life: 3.7 ± 0.7 h
[6]; rats, d5-kynurenic acid 2 mg/kg i.v.
  rate of metabolism to (d4-)xanthurenic acid in vivo: < 12%
[7]; PROB 60 and 120 mg/kg 7 days, cefmetazole 100 mg/kg i.v.
  plasma concentrations in rats treated with PROB: increased
[7]; WT and rOAT1/3−/− rats
  correlation of cmax with cefmetazole: moderate
[7]; rat, in vivo
  plasma level in rOAT1/3−/− rats vs WT rats: markedly increased
[8]
  uptake at 37 °C in OAT3-MRP4 cells vs double control cells: significantly increased
rOATs; PROB 30, 60, 120 mg/kg oral, 7 days
  serum levels in rats treated with PROB vs control: increased

## O=C(O)CNC(=O)C=Cc1ccccc1 [N-(cinnamoyl)glycine]
OAT1 [1]
  uptake at 4 °C in OAT1-overexpressing cells vs control: not significantly different
  uptake of HSA-bound UT in OAT1-overexpressing cells vs control cells: dramatically increased
  uptake of free UT in OAT1-overexpressing cells vs control cells: dramatically increased; also recorded: significantly elevated
OAT3 [2]
  uptake at 4 °C in OAT3-overexpressing cells vs control: not significantly different
  uptake of HSA-bound UT in OAT3-overexpressing cells vs control cells: dramatically increased
  uptake of free UT in OAT3-overexpressing cells vs control cells: dramatically increased; also recorded: significantly elevated
MRP4
  uptake at 4 °C in MRP4-overexpressing cells vs control: not significantly different
MRP4; 37 °C, 4 mM ATP
  intracellular accumulation in MRP4-overexpressing cells vs control cells: significantly decreased; also recorded: markedly reduced
OAT1 [3]; read-out: Km of OAT1-mediated uptake, HEK293T-OAT1, Michaelis-Menten
  Km: 4.26 mM
OAT3 [9]
  Km: 2.98 mM
OCT2
  transport mediated by OCT2: not mediated
MATE1
  transport mediated by MATE1: not mediated
MATE2-K
  transport mediated by MATE2-K: not mediated
OAT2
  transport mediated by OAT2: not mediated
OATP4C1
  transport mediated by OATP4C1: not mediated
P-gp
  transport mediated by P-gp: not mediated
PEPT2
  transport mediated by PEPT2: not mediated
URAT1
  transport mediated by URAT1: not mediated
OAT4
  transport mediated by OAT4 / uptake in OAT4-overexpressing cells vs control: not mediated
rMRP4 [4]; MK-571 (CMPF effect at 20 mg/kg)
  cumulative urinary excretion in rats treated with MK-571 vs control: not affected
rOAT1/3; first value of the printed pair, taken as WT, 12-h urine
  cumulative excretion, WT rats: 16.16 ± 5.27
rOAT1/3; second value of the pair, taken as knockout, 12-h urine
  cumulative excretion, rOAT1/3−/− rats: 8.56 ± 3.43
rOATs; 12 h urine
  cumulative urinary excretion in rats treated with PROB vs control: no significant effects
rOATs; rats / in vivo
  serum level in vivo (detectability by LC-MS/MS): below the detection limit
